Reference: US20230082989A1, “DEVICES AND METHODS FOR TREATING CANCER AND CARDIAC WASTING” (Nazzano Devices Limited, priority 2020, published 2023)
Like-named read-outs stand apart in the source and are kept apart here. Where no end group is shown, it is not given here.

Experiments:
advanced cancer patients [1] = assay: 24 h ECG recording (mean heart rate, SDNN, NSVT) in advanced cancer patients receiving heart failure drugs, case series; type: in vivo, human
Experimental: (§1) In some cases, SGLT2 inhibitors, Dapagliflozin or Empagliflozin can be used for treatment of type 2 diabetes, heart failure, or a combination thereof. Disclosed herein are methods comprising administering these drugs to advanced cancer patients to improve a heart muscle in these patients. We here describe 5 advanced cancer patients, who were treated with either an SGLT2 inhibitor, an ACE inhibitor, a beta-blocker or an Angiotensin receptor blocker, all of which are shown to be effective heart failure therapies.

advanced cancer patients [2] = assay: Echocardiogram (LVEF, LV mass) in advanced cancer patients receiving heart failure drugs, case series; type: in vivo, human
Experimental: as §1

advanced cancer patients [3] = assay: Hand grip strength, 4 meter walk and 6-minute walk test in advanced cancer patients receiving heart failure drugs, case series; type: in vivo, human
Experimental: as §1

advanced cancer patients [4] = assay: Self-rated health / EQ5D5L index in advanced cancer patients receiving heart failure drugs, case series; type: in vivo, human; conditions: for Self-rated health: 1=very good, 5=very poor; for Symptom status, EQ5D5L Index: 1 best possible, 0 worst possible
Experimental: as §1

advanced cancer patients [5] = assay: Survival follow-up of advanced cancer patients receiving heart failure drugs, case series; type: in vivo, human
advanced cancer patients [6] = assay: Interpretation of case reports: protection from heart muscle wasting, NSVT and early death; type: in vivo, human
[7] = test system: patients with advanced cancer; conditions: cited from earlier work
[8] = Case 6: Colorectal Cancer UICC stage 4, Candesartan 16 mg and Dapagliflozin 10 mg with co-medication
[9] = Case 12: Multiple Myeloma stage 3, Spironolactone 25 mg, Candesartan 32 mg and Candesartan 8 mg listed, with co-medication
[10] = Case 13: Lung cancer UICC stage 4B, Spironolactone 25 mg and Candesartan 32 mg with co-medication
[11] = Case 9: Lung Cancer UICC stage 4, Candesartan 32 mg and Metoprolol 95 mg with co-medication
[12] = Case 7: lymphoma Ann Arbor Stage 2A, Empagliflozin 10 mg with co-medication
[13] = Case 8: Pancreas Cancer UICC stage 4, Nebivolol 7.5 mg with co-medication
[14] = Case 10: Lymphoma Ann Arbor stage 4 E, Ramipril 2.5 mg with co-medication
[15] = Case 11: Lymphoma Ann Arbor stage 4 E, Ramipril 10 mg with co-medication
[16] = Case 14: Breast Cancer UICC stage 4, Spironolactone 25 mg with co-medication
[17] = Case A: pancreatic cancer metastasized to liver, Gemcitabine, pre-study vs post-study
[18] = Case B: gastrointestinal cancer metastasized to liver, Capecitabine
[19] = Case C: advanced mesothelioma, FOLFIRI
[20] = Case D: head & neck cancer metastasized to lungs, Cetuximab, pre-study vs post-study

Compound: CCOc1nc2cccc(C(=O)O)c2n1Cc1ccc(-c2ccccc2-c2nnn[nH]2)cc1 [Candesartan]
- Heart rate variability SDNN (24 h ECG) (advanced cancer patients [1]; [8]): 160 ms
- Mean heart rate (24 h ECG) (advanced cancer patients [1]; [8]): 70 beats per minute
- Heart rate variability SDNN (24 h ECG) (advanced cancer patients [1]; [9]): 112 ms
- Mean heart rate (24 h ECG) (advanced cancer patients [1]; [9]): 69 beats per minute
- Heart rate variability SDNN (24 h ECG) (advanced cancer patients [1]; [10]): 101 ms
- LV mass (echocardiogram) (advanced cancer patients [2]; [8]): 247 gram
- LVEF (echocardiogram) (advanced cancer patients [2]; [8]): 68%
- LV mass (echocardiogram) (advanced cancer patients [2]; [11]): 326 gram
- LVEF (echocardiogram) (advanced cancer patients [2]; [11]): 67%
- LV mass (echocardiogram) (advanced cancer patients [2]; [10]): 148 gram
- LVEF (echocardiogram) (advanced cancer patients [2]; [10]): 66%
- Distance in 6-minute walk test (advanced cancer patients [3]; [8]): 504 meters
- Hand grip strength (advanced cancer patients [3]; [8]): 46 kg
- Distance walked in 6 minutes (advanced cancer patients [3]; [11]): 440 meters
- Hand grip muscle strength (advanced cancer patients [3]; [11]): 43 kg
- Distance walked in 6 minutes (advanced cancer patients [3]; [9]): 527 meters
- Hand grip muscle strength (advanced cancer patients [3]; [9]): 47 kg
- Time to walk 4 meters (advanced cancer patients [3]; [9]): 2.5 s
- Hand grip muscle strength (advanced cancer patients [3]; [10]): 40 kg
- Self-rated health (advanced cancer patients [4]; [8]): 4
- Self-rated health (advanced cancer patients [4]; [11]): 2
- Symptom status, EQ5D5L Index (advanced cancer patients [4]; [9]): 0.887

Compound: CCOc1ccc(Cc2cc([C@@H]3O[C@H](CO)[C@@H](O)[C@H](O)[C@H]3O)ccc2Cl)cc1 [Dapagliflozin]
- Heart rate variability SDNN (24 h ECG) (advanced cancer patients [1]; [8]): 160 ms
- Mean heart rate (24 h ECG) (advanced cancer patients [1]; [8]): 70 beats per minute
- LV mass (echocardiogram) (advanced cancer patients [2]; [8]): 247 gram
- LVEF (echocardiogram) (advanced cancer patients [2]; [8]): 68%
- Distance in 6-minute walk test (advanced cancer patients [3]; [8]): 504 meters
- Hand grip strength (advanced cancer patients [3]; [8]): 46 kg
- Self-rated health (advanced cancer patients [4]; [8]): 4

Compound: OC[C@H]1O[C@@H](c2ccc(Cl)c(Cc3ccc(O[C@H]4CCOC4)cc3)c2)[C@H](O)[C@@H](O)[C@@H]1O [Empagliflozin]
- Survival (still alive after) (advanced cancer patients [5]; [12]): > 324 days
- Interpretation of the case (advanced cancer patients [6]; [12]): protected from heart muscle wasting, life-threatening non-sustained ventricular tachycardia and early death
- Heart rate variability SDNN (24 h ECG) (advanced cancer patients [1]; [12]): 224 ms
- Mean heart rate (24 h ECG) (advanced cancer patients [1]; [12]): 84 beats per minute
- Non-sustained ventricular tachycardia (24 h ECG) (advanced cancer patients [1]; [12]): no non-sustained ventricular tachycardia
- LV mass (echocardiogram) (advanced cancer patients [2]; [12]): 365 gram
- LVEF (echocardiogram) (advanced cancer patients [2]; [12]): 64%
- Hand grip strength (advanced cancer patients [3]; [12]): 46
- Time to walk 4 meters (advanced cancer patients [3]; [12]): 3.5 s
- Self-rated health (advanced cancer patients [4]; [12]): 2

Compound: COCCc1ccc(OCC(O)CNC(C)C)cc1 (stereo not shown) [Metoprolol]
- Interpretation of the case (advanced cancer patients [6]; [11]): protected from heart muscle wasting, life-threatening non-sustained ventricular tachycardia and early death
- Non-sustained ventricular tachycardia (24 h ECG) (advanced cancer patients [1]; [11]): no non-sustained ventricular tachycardia
- LV mass (echocardiogram) (advanced cancer patients [2]; [11]): 326 gram
- LVEF (echocardiogram) (advanced cancer patients [2]; [11]): 67%
- Distance walked in 6 minutes (advanced cancer patients [3]; [11]): 440 meters
- Hand grip muscle strength (advanced cancer patients [3]; [11]): 43 kg
- Self-rated health (advanced cancer patients [4]; [11]): 2

Compound: OC(CNCC(O)C1CCc2cc(F)ccc2O1)C1CCc2cc(F)ccc2O1 (stereo not shown) [Nebivolol]
- Survival (still alive after) (advanced cancer patients [5]; [13]): > 337 days
- Interpretation of the case (advanced cancer patients [6]; [13]): protected from heart muscle wasting, life-threatening non-sustained ventricular tachycardia and early death
- Heart rate variability SDNN (24 h ECG) (advanced cancer patients [1]; [13]): 124 ms
- Mean heart rate (24 h ECG) (advanced cancer patients [1]; [13]): 62 beats per minute
- Non-sustained ventricular tachycardia (24 h ECG) (advanced cancer patients [1]; [13]): no non-sustained ventricular tachycardia
- LV mass (echocardiogram) (advanced cancer patients [2]; [13]): 236 gram
- LVEF (echocardiogram) (advanced cancer patients [2]; [13]): 65%
- Hand grip muscle strength (advanced cancer patients [3]; [13]): 27 kg
- Time to walk 4 meters (advanced cancer patients [3]; [13]): 4.6 s
- Self-rated health (advanced cancer patients [4]; [13]): 3

Compound: CCOC(=O)[C@H](CCc1ccccc1)N[C@@H](C)C(=O)N1[C@H](C(=O)O)C[C@@H]2CCC[C@@H]21 [Ramipril]
- Survival (still alive after) (advanced cancer patients [5]; [14]): > 458 days
- Survival (still alive after) (advanced cancer patients [5]; [15]): > 666 days
- Interpretation of the case (advanced cancer patients [6]; [14]): protected from heart muscle wasting, life-threatening non-sustained ventricular tachycardia and early death
- Interpretation of the case (advanced cancer patients [6]; [15]): protected from heart muscle wasting, life-threatening non-sustained ventricular tachycardia and early death
- Heart rate variability SDNN (24 h ECG) (advanced cancer patients [1]; [14]): 95 ms
- Mean heart rate (24 h ECG) (advanced cancer patients [1]; [14]): 64 beats per minute
- Non-sustained ventricular tachycardia (24 h ECG) (advanced cancer patients [1]; [14]): no non-sustained ventricular tachycardia
- Heart rate variability SDNN (24 h ECG) (advanced cancer patients [1]; [15]): 120 ms
- Mean heart rate (24 h ECG) (advanced cancer patients [1]; [15]): 77 beats per minute
- Non-sustained ventricular tachycardia (24 h ECG) (advanced cancer patients [1]; [15]): no non-sustained ventricular tachycardia
- LV mass (echocardiogram) (advanced cancer patients [2]; [14]): 189 gram
- LVEF (echocardiogram) (advanced cancer patients [2]; [14]): 63%
- LV mass (echocardiogram) (advanced cancer patients [2]; [15]): 227 gram
- LVEF (echocardiogram) (advanced cancer patients [2]; [15]): 67%
- Distance walked in 6 minutes (advanced cancer patients [3]; [14]): 440 meters
- Hand grip muscle strength (advanced cancer patients [3]; [14]): 29 kg
- Time to walk 4 meters (advanced cancer patients [3]; [14]): 3.5 s
- Hand grip muscle strength (advanced cancer patients [3]; [15]): 47 kg
- Self-rated health (advanced cancer patients [4]; [14]): 3
- Symptom status, EQ5D5L Index (advanced cancer patients [4]; [15]): 0.999

Compound: CC(=O)S[C@@H]1CC2=CC(=O)CC[C@]2(C)[C@H]2CC[C@@]3(C)[C@@H](CC[C@@]34CCC(=O)O4)[C@H]12 [Spironolactone]
- Survival (still alive after) (advanced cancer patients [5]; [16]): > 235 days
- Interpretation of the case (advanced cancer patients [6]; [10]): protected from heart muscle wasting, life-threatening non-sustained ventricular tachycardia and early death
- Interpretation of the case (advanced cancer patients [6]; [16]): protected from heart muscle wasting, life-threatening non-sustained ventricular tachycardia and early death
- Heart rate variability SDNN (24 h ECG) (advanced cancer patients [1]; [9]): 112 ms
- Mean heart rate (24 h ECG) (advanced cancer patients [1]; [9]): 69 beats per minute
- Non-sustained ventricular tachycardia (24 h ECG) (advanced cancer patients [1]; [9]): no non-sustained ventricular tachycardia
- Heart rate variability SDNN (24 h ECG) (advanced cancer patients [1]; [10]): 101 ms
- Non-sustained ventricular tachycardia (24 h ECG) (advanced cancer patients [1]; [10]): no non-sustained ventricular tachycardia
- Average heart rate (24 h ECG) (advanced cancer patients [1]; [16]): 85 bpm
- Heart rate variability SDNN (24 h ECG) (advanced cancer patients [1]; [16]): 142 ms
- Non-sustained ventricular tachycardia (24 h ECG) (advanced cancer patients [1]; [16]): no non-sustained ventricular tachycardia
- LV mass (echocardiogram) (advanced cancer patients [2]; [10]): 148 gram
- LVEF (echocardiogram) (advanced cancer patients [2]; [10]): 66%
- LV mass (echocardiogram) (advanced cancer patients [2]; [16]): 233 gram
- LVEF (echocardiogram) (advanced cancer patients [2]; [16]): 67%
- Distance walked in 6 minutes (advanced cancer patients [3]; [9]): 527 meters
- Hand grip muscle strength (advanced cancer patients [3]; [9]): 47 kg
- Time to walk 4 meters (advanced cancer patients [3]; [9]): 2.5 s
- Hand grip muscle strength (advanced cancer patients [3]; [10]): 40 kg
- Hand grip muscle strength (advanced cancer patients [3]; [16]): 40 kg
- Symptom status, EQ5D5L Index (advanced cancer patients [4]; [9]): 0.887

Compound: Ghrelin (GSSFLSPEHQRVQQRKESKKPPAKLQPR; ends and bridges not checked; UniProt Q9UBU3 24-51, looked up) [a gut-derived 28-amino acid peptide hormone]
- Change in muscle mass [7, 17]: no change
- Increase in muscle strength [7, 17]: 2%
- Increase in steps/day [7, 17]: 40%
- Adverse event [7, 18]: hospitalized for atrial fibrillation, which was an AE deemed unrelated to ghrelin
- Patient comment about using ghrelin [7, 18]: Feel more active
- Adverse event [7, 19]: increase in tumor pain, an AE deemed unrelated to ghrelin
- Patient opinion about using ghrelin [7, 19]: This is the first therapy which improves my well-being
- Survival [7, 19]: 62 days
- Decrease in muscle mass ([7]; Case C: advanced mesothelioma, FOLFIRI, pre-study vs post-study): 3%
- Change in muscle mass [7, 20]: no change
- Increase in muscle strength [7, 20]: 6%
- Increase in steps/day [7, 20]: 63%
